The values below come from ChEMBL document CHEMBL3407363, “Vitamin D3 analogues that contain modified A- and seco-B-rings as hedgehog pathway inhibitors” (Eur J Med Chem, 2015).

Series [1] is described as follows: Inhibition of hedgehog signaling in mouse C3H10T1/2 cells assessed as reduction in Gli1 mRNA level at 5 uM after 24 hrs by quantitative PCR analysis relative to control. The settings on record: C3H 10T1/2, values are per cent of control. The class given is cell-based.
Series [2] is described as follows: Inhibition of hedgehog signaling in mouse C3H10T1/2 cells assessed as reduction in Gli1 mRNA level after 24 hrs by quantitative PCR analysis. It is filed as cell-based. The settings on record: for inhibition: C3H 10T1/2; for IC50: C3H 10T1/2, 24 h.
The target in series [3] is T1, Vitamin D3 receptor (Mus musculus, UniProt P48281).
T1 sequence (P48281 whole entry): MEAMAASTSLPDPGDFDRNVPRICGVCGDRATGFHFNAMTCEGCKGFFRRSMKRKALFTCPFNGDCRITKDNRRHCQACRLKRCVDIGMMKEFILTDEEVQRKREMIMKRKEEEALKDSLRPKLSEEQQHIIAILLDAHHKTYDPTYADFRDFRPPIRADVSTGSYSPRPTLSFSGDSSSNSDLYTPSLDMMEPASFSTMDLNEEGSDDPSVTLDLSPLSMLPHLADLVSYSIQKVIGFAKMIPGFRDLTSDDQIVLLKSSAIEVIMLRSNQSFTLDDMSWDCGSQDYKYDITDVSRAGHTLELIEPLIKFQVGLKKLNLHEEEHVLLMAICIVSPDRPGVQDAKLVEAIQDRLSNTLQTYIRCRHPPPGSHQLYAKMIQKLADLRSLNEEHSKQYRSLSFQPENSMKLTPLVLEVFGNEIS
Put plainly: Activation of VDR in mouse ASZ cells assessed as up-regulation of Cyp24A1 mRNA at 5 uM after 24 hrs by quantitative PCR analysis relative to control. The class given is ADME, cell-based.

Series [4] deals with T2, Vitamin D3 receptor (Homo sapiens) (UniProt P11473).
T2 sequence (whole entry): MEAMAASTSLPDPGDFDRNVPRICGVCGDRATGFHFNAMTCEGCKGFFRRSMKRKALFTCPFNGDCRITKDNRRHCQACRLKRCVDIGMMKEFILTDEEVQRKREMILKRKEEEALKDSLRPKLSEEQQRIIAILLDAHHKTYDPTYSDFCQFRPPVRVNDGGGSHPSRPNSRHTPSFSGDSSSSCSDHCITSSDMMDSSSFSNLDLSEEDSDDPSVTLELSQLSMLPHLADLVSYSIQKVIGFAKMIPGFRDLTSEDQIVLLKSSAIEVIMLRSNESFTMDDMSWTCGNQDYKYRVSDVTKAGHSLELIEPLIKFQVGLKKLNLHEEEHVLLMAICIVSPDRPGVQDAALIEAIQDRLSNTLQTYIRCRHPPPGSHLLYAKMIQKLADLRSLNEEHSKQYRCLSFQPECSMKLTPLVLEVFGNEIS
Briefly: Binding affinity to full length human VDR by fluorescent displacement assay.

The target of series [5] is T1, Vitamin D3 receptor. Put plainly: Activation of VDR in mouse ASZ cells assessed as up-regulation of Cyp24A1 mRNA at 2.5 uM after 24 hrs by quantitative PCR analysis relative to control. The class given is ADME, cell-based.

A value given as a limit tells only on which side of the number the result lay.

As usually defined, the IC50 is the concentration that gives 50% inhibition.

On to `CC(C)CCC[C@@H](C)[C@H]1CC[C@H]2[C@@H](OC(=O)/C=C/c3ccccc3O)CCC[C@]12C`, for which the response, % of control in series [1] worked out at 94.2%.
In the case of `CC(C)CCC[C@@H](C)[C@H]1CC[C@H]2[C@H](C(=O)c3cccc(O)c3)CCC[C@]12C`, the response, % of control in series [1] came out at 11%. In series [2], the inhibition result is “Dose-dependent effect” and the IC50 is 1800 nM. In series [3], the Activity was 7.8%. In series [4], this compound displayed a K greater than 100 µM.
As for `CC(C)CCC[C@@H](C)[C@H]1CC[C@H]2[C@H](c3cccc(O)c3)CCC[C@]12C`, in series [1], the response, % of control came out at 47.9%.
With `C=C1CC[C@H](O)C/C1=C/C=C1\CCC[C@]2(C)[C@@H]([C@H](C)CCCC(C)C)CC[C@@H]12` [CHOLECALCIFEROL], the response, % of control in series [1] worked out at 35.7%. Also, in series [2], the inhibition entry is “Dose-dependent effect” and the IC50 was 4100 nM. In addition, the Activity in series [5] came out at 764%. This compound also returned a K in series [4] greater than 100 µM.
On to `CC(C)CCC[C@@H](C)[C@H]1CC[C@H]2[C@@H](O)CCC[C@]12C`, for which, in series [1], the response, % of control is 46.4%.
For the compound `CC(C)CCC[C@@H](C)[C@H]1CC[C@H]2/C(=C/C(=O)Nc3ccccc3O)CCC[C@]12C`, the response, % of control in series [1] turned out to be 1.1%. In series [2], the inhibition result is “Dose-dependent effect” and the IC50 was found to be 1500 nM. Moreover, the Activity in series [3] was 14%. Further, the K in series [4] was greater than 100 µM.
As for `CC(C)CCC[C@@H](C)[C@H]1CC[C@H]2[C@@H](OC(=O)CCc3cccc(O)c3)CCC[C@]12C`, the response, % of control in series [1] stood at 15.3%. In series [2], the inhibition result is “Dose-dependent effect” and the IC50 was 2600 nM. Besides, the Activity in series [3] is given as 7.6%. Further, the K in series [4] was greater than 100 µM.
For `CC(C)CCC[C@@H](C)[C@H]1CC[C@H]2[C@@H](OC(=O)c3cccc(O)c3)CCC[C@]12C` the same measures were 1.9%, “Dose-dependent effect”, 740 nM, 1.9% and greater than 100 µM.
For `CC(C)CCC[C@@H](C)[C@H]1CC[C@H]2[C@@H](Nc3ccccc3O)CCC[C@]12C` the same measures were 2%, “Dose-dependent effect”, 1200 nM, 4.4% and greater than 100 µM.
Take `CC(C)CCC[C@@H](C)[C@H]1CC[C@H]2[C@@H](OC(=O)/C=C/c3ccc(O)cc3)CCC[C@]12C`: the response, % of control in series [1] amounted to 62.1%.
With `CC(C)CCC[C@@H](C)[C@H]1CC[C@H]2[C@H](CCO)CCC[C@]12C`, the response, % of control in series [1] was 2.8%. Also, in series [2], the inhibition entry is “Dose-dependent effect” and the IC50 was 2400 nM. The Activity in series [3] is on record as 1.3%. The compound also showed a K in series [4] greater than 100 µM.
For `CC(C)CCC[C@@H](C)[C@H]1CC[C@H]2[C@@H](Nc3ccc(O)cc3)CCC[C@]12C`, in that order: 0.7%, “Dose-dependent effect”, 400 nM, 2.7% and greater than 100 µM.
`CC(C)CCC[C@@H](C)[C@H]1CC[C@H]2[C@H](CO)CCC[C@]12C`: in series [1], the response, % of control was 55.1%.
Turning to `CC(C)CCC[C@@H](C)[C@H]1CC[C@H]2[C@H](Nc3ccc(O)cc3)CCC[C@]12C`, the response, % of control in series [1] worked out at 1.3%. Further, in series [2], the inhibition entry is “Dose-dependent effect” and the IC50 is 320 nM. In series [3], the Activity is listed as 3%. This compound had a K in series [4] greater than 100 µM.
With `CC(C)CCC[C@@H](C)[C@H]1CC[C@H]2[C@@H](OC(=O)CCc3ccccc3O)CCC[C@]12C`, in series [1], the response, % of control is 47.4%.
With `CC(C)CCC[C@@H](C)[C@H]1CC=C2[C@H](O)CCC[C@@]21C`, in series [1], the response, % of control was 90.1%.
As to `CC(C)CCC[C@@H](C)[C@H]1CC[C@H]2[C@@H](Nc3cccc(O)c3)CCC[C@]12C`, in series [1], the response, % of control came to 11.6%. Besides, in series [2], the inhibition result is “Dose-dependent effect” and the IC50 worked out at 1000 nM. In addition, the Activity in series [3] was found to be 1.8%. Further, the K in series [4] was greater than 100 µM.
For the compound `CC(C)CCC[C@@H](C)[C@H]1CC[C@H]2[C@@H](OC(=O)CCc3ccc(O)cc3)CCC[C@]12C`, the response, % of control in series [1] worked out at 20.1%.
For `CC(C)CCC[C@@H](C)[C@H]1CC[C@H]2/C(=C/C(=O)Nc3ccc(O)cc3)CCC[C@]12C`, the response, % of control in series [1] was determined as 1.8%. In series [2], the inhibition result was “Dose-dependent effect” and the IC50 was 1200 nM. Also, the Activity in series [3] amounted to 4.4%. Also, the K in series [4] was greater than 100 µM.
With `CC(C)CCC[C@@H](C)[C@H]1CC=C2C(=O)CCC[C@@]21C`, the response, % of control in series [1] stood at 63.4%.
Turning to `CC(C)CCC[C@@H](C)[C@H]1CC[C@H]2[C@@H](OC(=O)Cc3cccc(O)c3)CCC[C@]12C`, in series [1], the response, % of control was 1.8%. In series [2], the inhibition entry is “Dose-dependent effect” and the IC50 amounted to 790 nM. Further, in series [3], the Activity is given as 3.5%. Besides, in series [4], the K was greater than 100 µM.
As for `CC(C)CCC[C@@H](C)[C@H]1CC[C@H]2[C@@H](OC(=O)/C=C/c3cccc(O)c3)CCC[C@]12C`, the response, % of control in series [1] was found to be 57.2%.
With `CC(C)CCC[C@@H](C)[C@H]1CC[C@H]2[C@@H](NC(=O)c3cccc(O)c3)CCC[C@]12C`, the response, % of control in series [1] is 2.5%. In series [2], the inhibition entry was “Dose-dependent effect” and the IC50 came to 980 nM. Also, the Activity in series [3] amounted to 1.8%. This compound also displayed a K in series [4] greater than 100 µM.
For `CC(C)CCC[C@@H](C)[C@H]1CC[C@H]2[C@H](OC(=O)c3cccc(O)c3)CCC[C@]12C` the same measures were 30.6%, “Dose-dependent effect”, 3900 nM, 1.6% and greater than 100 µM.
On to `CC(C)CCC[C@@H](C)[C@H]1CC[C@@H]2[C@@H](O)CCC[C@]12C`, for which the response, % of control in series [1] was 48.7%.
As for `CC(C)CCC[C@@H](C)[C@H]1CC[C@H]2/C(=C/C(=O)Nc3cccc(O)c3)CCC[C@]12C`, the response, % of control in series [1] worked out at 12.1%. In addition, in series [2], the inhibition entry was “Dose-dependent effect” and the IC50 amounted to 1000 nM. The Activity in series [3] was determined as 4.5%. For the same compound, the K in series [4] is greater than 100 µM.
As for `CC(C)CCC[C@@H](C)[C@H]1CC[C@H]2/C(=C/C(=O)Nc3ccccc3)CCC[C@]12C`, the response, % of control in series [1] was determined as 41.7%.
Still for that read-out and setting: the same measure for `CC(C)CCC[C@@H](C)[C@H]1CC[C@H]2/C(=N/O)CCC[C@]12C`: 86.1%; for `CC(C)CCC[C@@H](C)[C@H]1CC[C@H]2C(=O)CCC[C@]12C`: 66.1%; for `CC(C)CCC[C@@H](C)[C@H]1CC[C@@H]2[C@]1(C)CCC[C@@]2(O)c1cccc(O)c1`: 39.5%.
The same measure, in the same setting: the same measure for `CC(C)CCC[C@@H](C)[C@H]1CC[C@H]2C(c3cccc(O)c3)=CCC[C@]12C`: 37.2%; for `CC(C)CCC[C@@H](C)[C@H]1CC[C@H]2[C@H](O)CCC[C@]12C`: 74%.
Still for that read-out and setting: the same measure for `CC(C)CCC[C@@H](C)[C@H]1CC[C@H]2/C(=C/CO)CCC[C@]12C`: 15.1%.
In the case of `CCOC(=O)/C=C1\CCC[C@]2(C)[C@@H]([C@H](C)CCCC(C)C)CC[C@@H]12`, the response, % of control in series [1] turned out to be 107%.
